Patent US20250049891A1, “NOVEL PEPTIDE DERIVATIVE DERIVED FROM ADIPONECTIN AND USE THEREOF” (SEOUL NATIONAL UNIVERSITY HOSPITAL, priority 2021, published 2025)
Values after ≈ are worked out from the molar mass of the structure shown. Numbered stars: 1 amine (or outer) side, 2 acyl side, 3 side chain; on linkers, the order of the positions; unused ones are H or OH. Bridge positions count the residues as written; N and C are the ends. Square brackets hold non-standard residues; d marks the D form. Peptide text beside a SMILES is read from it. ξ: configuration not given here. ξhAlg = O=C(C(CCC=[*:3])N[*:1])[*:2]; AllylGly = C=CC[CH](N)C(=O)O

Experiments:
[1] = test system: AMPK phosphorylation; test: AMPK phosphorylation activity in mouse adipocytes (Western blot); type: cell-based; details: 3T3-L1, 10 μM, 24 hours; for AMPK phosphorylation activity (fold change): APN5 = 1.0
Procedure: There were confirmed effects of the peptide derivatives of the present disclosure on the expression and receptor activity of adiponectin in mouse adipocytes as a main adiponectin production site. A mouse adipocyte cell line 3T3-L1 was treated with each of the peptide derivatives of the present disclosure at a concentration of 10 μM and cultured for 24 hours, and then cells were obtained. Thereafter, the proteins were extracted and the effect on AMPK phosphorylation, which was responsible for the main downstream signaling of adiponectin, was confirmed by Western blot.

[2] = biological target: T1, adiponectin receptor 1 (Mus musculus, UniProt Q91VH1); test: AMPK phosphorylation activity after knockdown of adiponectin receptor 1 (siRNA, Western blot); type: cell-based; details: 3T3-L1, adiponectin receptor 1 siRNA, 10 μM, 24 hours
T1 construct: a mouse adipocyte cell line 3T3-L1 was treated with siRNA of an adiponectin receptor 1 to be knocked down; endogenous in cells; host or cells: 3T3-L1 mouse adipocyte cell line
T1 sequence (Q91VH1 1-375): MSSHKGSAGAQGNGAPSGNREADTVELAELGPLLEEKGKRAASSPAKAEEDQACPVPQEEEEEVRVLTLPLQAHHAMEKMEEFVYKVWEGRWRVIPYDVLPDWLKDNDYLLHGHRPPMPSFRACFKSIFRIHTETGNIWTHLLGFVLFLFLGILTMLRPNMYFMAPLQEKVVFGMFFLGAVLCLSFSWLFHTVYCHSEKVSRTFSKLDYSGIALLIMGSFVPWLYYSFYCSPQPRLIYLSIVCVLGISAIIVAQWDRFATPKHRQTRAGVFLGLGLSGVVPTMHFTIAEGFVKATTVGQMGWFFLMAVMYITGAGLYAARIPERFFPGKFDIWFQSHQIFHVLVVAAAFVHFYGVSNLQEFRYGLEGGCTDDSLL
Procedure: In order to verify whether the peptide derivative of the present disclosure bound to an adiponectin receptor 1, a mouse adipocyte cell line 3T3-L1 was treated with siRNA of an adiponectin receptor 1 to be knocked down, and each of the peptide derivatives of the present disclosure was treated at 10 μM and cultured for 24 hours, and then cells were obtained. Thereafter, the proteins were extracted and it was confirmed by Western blot whether AMPK phosphorylation activity, which had been increased by the peptide derivatives, was lost.

[3] = physchem; details: pH 7.4, aqueous buffer, kinetic from dmso stock
Procedure: A PRISMA HT solution was diluted in distilled water at a ratio of 1:40, and then used as a test buffer by adjusting the pH to 7.4.
10 mL of the prepared test material was diluted in 190 μL of isopropyl alcohol and prepared. In addition, 75 mL of the test solution and 70 mL of isopropyl alcohol were mixed to be used as a blank sample, and 5 mL of the test material diluted in isopropyl alcohol was added to the blank sample. After the diluted sample was mixed, the absorbance was measured and used as an initial test value. […] Thereafter, the precipitate was removed from the sample using a filter plate, 74 mL of the filtered sample was added with 75 mL of isopropyl alcohol, and then the absorbance was measured and used as the sample value.
The solubility value of the test material was analyzed using a msol Explore (Solubility explorer program) after measuring the absorbance of each sample through a microplate reader. The average and standard deviation of the experimental values (n=3) repeated three times were calculated using the Excel program.

[4] = in vitro; details: rat, plasma
Procedure: (§2) The peptide derivative of the present disclosure was added at a concentration of 1 μM to two types of plasma (human, rat), placed in each tube, and then cultured at 37° C. for time of 0, 30, 60, 120, and 240 minutes. The tube containing plasma was taken out every time, added with an acetonitrile solution containing an internal standard material (chlorpropamide), vortexed for 5 minutes, and centrifuged for 5 minutes (14,000 rpm, 4° C.). Thereafter, the plasma stability of the peptide derivative was evaluated by injecting the supernatant into an LC-MS/MS system and analyzing the drug at each time period. At this time, Procaine and Enalapril were used as reference materials for accuracy during a general plasma stability test.
(§3) After the reaction, the amount of drug remaining in each tube was analyzed by LC-MS/MS using Shimadzu Nexera XR system and TSQ vantage (Thermo). The HPLC column was used with a Luna C18 column (2.0×50 mm, 3 μm particle size; Phenomenex, US), and the mobile phase was distilled water (A) containing 0.1% formic acid and acetonitrile (B) containing 0.1% formic acid. Data analysis was performed using Xcalibur (version 1.6.1). In the result analysis, the plasma stability of each peptide derivative was expressed as % remaining for each time period for the sample without culture.

[5] = in vitro; details: human, plasma
Procedure: as §2, §3

[6] = Metabolic stability test, rat liver microsomes; type: in vitro ADME; details: pH 7.4, rat liver microsomes 0.5 mg/ml, NADPH, 37° C., 30 m
Procedure: (§4) Three types of liver microsomes (Human, Rat, Mouse, 0.5 mg/ml), a 0.1 M phosphate buffer solution (pH 7.4), and the peptide derivative of the present disclosure were added at a concentration of 1 μM and pre-cultured at 37° C. for 5 minutes, and then added with an NADPH Regeneration system solution and cultured at 37° C. for 30 minutes. Thereafter, to terminate the reaction, the mixture was added with an acetonitrile solution containing an internal standard material (chlorpropamide), centrifuged for 5 minutes (14,000 rpm, 4° C.), and then the supernatant was injected into the LC-MS/MS system to analyze a substrate drug, and thus metabolic stability was evaluated.
(§5) The amount of substrate remaining through the reaction was analyzed by LC-MS/MS using Agilent 1290 infinity series pump system (Agilent, USA) and Triple Quad 5500 LC-MS/MS system (Applied Biosystems, USA). The HPLC column was used with a Kinetex C18 column (2.1×100 mm, 1.7 μm particle size; Phenomenex, USA), and the mobile phase was distilled water (A) containing 0.1% formic acid and acetonitrile (B) containing 0.1% formic acid. TurboSpray Ionization was used as an ion source for MS/MS, and a triple quadruple type was used as a mass spectrometer. The produced metabolites were quantified using a multiple reaction monitoring (MRM) quantitative mode, and data analysis was performed using Analyst software (version 1.6.1).

[7] = biological target: T2, CYP1A2 (Homo sapiens, UniProt P05177); details: microsomes, 10 µM
T2 sequence (P05177 1-516): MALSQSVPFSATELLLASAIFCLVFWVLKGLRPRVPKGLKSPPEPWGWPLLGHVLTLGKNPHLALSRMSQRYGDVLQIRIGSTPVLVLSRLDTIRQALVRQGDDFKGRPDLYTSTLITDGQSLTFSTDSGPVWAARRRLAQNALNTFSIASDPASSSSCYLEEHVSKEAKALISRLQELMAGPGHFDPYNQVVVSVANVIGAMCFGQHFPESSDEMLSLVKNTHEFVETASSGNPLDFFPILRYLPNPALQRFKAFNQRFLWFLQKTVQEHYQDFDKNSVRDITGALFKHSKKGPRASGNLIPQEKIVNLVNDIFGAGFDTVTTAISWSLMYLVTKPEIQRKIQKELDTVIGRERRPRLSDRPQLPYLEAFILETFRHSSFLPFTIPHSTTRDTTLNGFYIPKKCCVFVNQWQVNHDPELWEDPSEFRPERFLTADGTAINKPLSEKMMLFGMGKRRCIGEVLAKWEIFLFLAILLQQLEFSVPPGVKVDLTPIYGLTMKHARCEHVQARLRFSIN
Procedure: (§1) Metabolites of each CYP isoenzyme indicator drug produced through the reaction were analyzed by LC-MS/MS using the Shimadzu Nexera XR system and TSQ vantage (Thermo).

[8] = biological target: CYP2D6 (Homo sapiens, UniProt P10635); details: microsomes, 10 µM
CYP2D6, sequence (P10635 whole entry): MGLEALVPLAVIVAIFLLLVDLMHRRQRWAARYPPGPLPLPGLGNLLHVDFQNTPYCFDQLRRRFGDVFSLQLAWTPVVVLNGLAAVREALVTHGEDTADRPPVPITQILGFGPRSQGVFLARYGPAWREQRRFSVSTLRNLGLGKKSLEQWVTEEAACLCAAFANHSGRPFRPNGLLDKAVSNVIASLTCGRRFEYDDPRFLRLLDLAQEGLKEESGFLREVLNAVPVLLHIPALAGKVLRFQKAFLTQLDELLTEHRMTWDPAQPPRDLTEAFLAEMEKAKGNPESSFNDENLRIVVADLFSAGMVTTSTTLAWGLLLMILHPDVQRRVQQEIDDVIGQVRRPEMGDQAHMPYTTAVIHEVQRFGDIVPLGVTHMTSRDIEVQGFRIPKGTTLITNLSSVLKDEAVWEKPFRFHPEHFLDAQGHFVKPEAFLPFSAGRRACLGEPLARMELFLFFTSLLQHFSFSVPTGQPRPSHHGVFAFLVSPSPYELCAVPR
Procedure: as §1

[9] = biological target: CYP2C9 (Homo sapiens, UniProt P11712); details: microsomes, 10 µM
CYP2C9, sequence (P11712 whole entry): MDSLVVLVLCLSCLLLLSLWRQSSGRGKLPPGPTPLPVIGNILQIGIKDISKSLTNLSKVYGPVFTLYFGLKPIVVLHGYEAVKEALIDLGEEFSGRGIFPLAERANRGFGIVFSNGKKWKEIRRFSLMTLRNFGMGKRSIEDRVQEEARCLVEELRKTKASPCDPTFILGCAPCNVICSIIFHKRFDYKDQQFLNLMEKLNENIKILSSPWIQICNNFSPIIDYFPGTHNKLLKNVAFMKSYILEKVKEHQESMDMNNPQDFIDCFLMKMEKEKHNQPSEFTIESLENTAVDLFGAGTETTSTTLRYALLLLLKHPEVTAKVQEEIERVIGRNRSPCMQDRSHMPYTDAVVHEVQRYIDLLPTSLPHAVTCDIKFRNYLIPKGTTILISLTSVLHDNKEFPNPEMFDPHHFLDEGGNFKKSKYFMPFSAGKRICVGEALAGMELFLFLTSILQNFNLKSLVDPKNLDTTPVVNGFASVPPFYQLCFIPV
Procedure: as §1

[10] = biological target: CYP3A4 (Homo sapiens, UniProt P08684); details: microsomes, 10 µM
CYP3A4, sequence (P08684 whole entry): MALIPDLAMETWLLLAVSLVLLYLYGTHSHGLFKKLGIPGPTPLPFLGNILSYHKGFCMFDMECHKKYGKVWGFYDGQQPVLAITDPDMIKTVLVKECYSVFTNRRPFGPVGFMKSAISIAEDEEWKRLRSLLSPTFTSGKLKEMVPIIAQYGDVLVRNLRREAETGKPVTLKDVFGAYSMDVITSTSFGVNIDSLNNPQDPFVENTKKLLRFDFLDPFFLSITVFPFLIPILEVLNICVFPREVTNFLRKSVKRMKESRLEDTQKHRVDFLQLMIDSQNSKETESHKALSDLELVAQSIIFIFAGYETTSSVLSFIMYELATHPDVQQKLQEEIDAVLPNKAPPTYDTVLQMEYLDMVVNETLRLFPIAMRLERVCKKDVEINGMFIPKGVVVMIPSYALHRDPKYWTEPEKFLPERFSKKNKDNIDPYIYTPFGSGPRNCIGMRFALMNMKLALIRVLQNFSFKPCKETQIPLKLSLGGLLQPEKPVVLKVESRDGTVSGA
Procedure: as §1

[11] = biological target: CYP2C19 (Homo sapiens, UniProt P33261); details: microsomes, 10 µM
CYP2C19, sequence (P33261 whole entry): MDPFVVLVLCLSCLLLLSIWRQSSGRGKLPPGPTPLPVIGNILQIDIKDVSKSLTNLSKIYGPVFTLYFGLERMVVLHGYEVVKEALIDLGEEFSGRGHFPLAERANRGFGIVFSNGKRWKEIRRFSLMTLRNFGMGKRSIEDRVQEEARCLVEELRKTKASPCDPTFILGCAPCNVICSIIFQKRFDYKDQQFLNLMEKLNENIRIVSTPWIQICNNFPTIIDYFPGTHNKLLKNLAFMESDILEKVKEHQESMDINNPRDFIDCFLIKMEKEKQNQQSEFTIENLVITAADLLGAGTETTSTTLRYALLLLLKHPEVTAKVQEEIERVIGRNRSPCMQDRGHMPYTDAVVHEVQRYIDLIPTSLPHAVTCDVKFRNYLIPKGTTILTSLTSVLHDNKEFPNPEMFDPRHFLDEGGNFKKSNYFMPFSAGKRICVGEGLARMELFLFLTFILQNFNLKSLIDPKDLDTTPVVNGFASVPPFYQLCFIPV
Procedure: as §1

[12] = Metabolic stability test, mouse liver microsomes; type: in vitro ADME; details: pH 7.4, mouse liver microsomes 0.5 mg/ml, NADPH, 37° C., 30 m
Procedure: as §4, §5

[13] = in vitro; details: human, microsomes, pH 7.4
Procedure: as §4
The HPLC column was used with a Kinetex C18 column (2.1×100 mm, 1.7 μm particle size; Phenomenex, USA), and the mobile phase was distilled water (A) containing 0.1% formic acid and acetonitrile (B) containing 0.1% formic acid. TurboSpray Ionization was used as an ion source for MS/MS, and a triple quadruple type was used as a mass spectrometer. The produced metabolites were quantified using a multiple reaction monitoring (MRM) quantitative mode, and data analysis was performed using Analyst software (version 1.6.1).

[14] = Plasma stability test, human plasma; details: human plasma, 37° C.
Procedure: as §2, §3

[15] = Plasma stability test, rat plasma; details: rat plasma, 1 μM, 37° C.
Procedure: as §2, §3

| Compound | AMPK phosphorylation activity (fold change) [1] | remaining at 0.5 h, 1 μM [4] | remaining at 2 h, 1 μM [4] | remaining at 0.5 h, 1 μM [5] | remaining at 2 h, 1 μM [5] | remaining at 0.5 h, 1 μM [6] | CYP inhibition (% of control activity) CYP1A2 [7] | CYP inhibition (% of control activity) CYP2D6 [8] | CYP inhibition (% of control activity) CYP2C9 [9] | CYP inhibition (% of control activity) CYP3A4 [10] | CYP inhibition (% of control activity) CYP2C19 [11] | remaining at 0.5 h, 1 μM [12] | remaining at 0.5 h, 1 μM [13] | also measured |
| --- | --- | --- | --- | --- | --- | --- | --- | --- | --- | --- | --- | --- | --- | --- |
| NCC(=O)NC(CC(N)=O)C(=O)NC(Cc1ccc(O)cc1)C(=O)NC(Cc1ccc(O)cc1)C(=O)NC(Cc1ccccc1)C(=O)O (stereo not drawn) [DS-9, NH2-GNYYF-OH] (H-GNYYF-OH; configuration not given here) | 1.6 fold change |  |  |  |  |  |  |  |  |  |  |  |  |  |
| CC(C)CC(NC(=O)CN)C(=O)NC(Cc1c[nH]c2ccccc12)C(=O)NC(Cc1ccc(O)cc1)C(=O)NC(Cc1ccccc1)C(N)=O (stereo not drawn) [DS-17, NH2-GLWYF-NH2] (H-GLWYF-NH2; configuration not given here) | 1.2 fold change |  |  |  |  |  |  |  |  |  |  |  |  | AMPK phosphorylation activity compared to APN5 (in words) [1]: significant effect of increasing AMPK phosphorylation activity; AMPK phosphorylation activity after knockdown of the adiponectin receptor 1 [2]: decreased the AMPK phosphorylation activity after knockdown of the adiponectin receptor 1 |
| CCC(C)C(NC(=O)CN)C(=O)NC(Cc1c[nH]c2ccccc12)C(=O)NC(Cc1ccc(O)cc1)C(=O)NC(Cc1ccccc1)C(N)=O (stereo not drawn) [DS-18, NH2-GIWYF-NH2] (H-GIWYF-NH2; configuration not given here) | 1.2 fold change |  |  |  |  |  |  |  |  |  |  |  |  | AMPK phosphorylation activity compared to APN5 (in words) [1]: significant effect of increasing AMPK phosphorylation activity; AMPK phosphorylation activity after knockdown of the adiponectin receptor 1 [2]: decreased the AMPK phosphorylation activity after knockdown of the adiponectin receptor 1 |
| NC(CC(=O)O)C(=O)NC(Cc1ccc(O)cc1)C(=O)NC(Cc1ccc(O)cc1)C(=O)NC(Cc1ccccc1)C(=O)O (stereo not drawn) [DS-27, NH2-DYYF-OH] (H-DYYF-OH; configuration not given here) | 1.3 fold change |  |  |  |  |  |  |  |  |  |  |  |  | solubility at 24 h [3]: 300 µg/mL (≈ 495 µM) |
| NC(=O)C(Cc1ccccc1)NC(=O)C(Cc1ccc(O)cc1)NC(=O)C(Cc1ccc(O)cc1)NC(=O)C(N)CC(=O)O (stereo not drawn) [DS-29, NH2-DYYF-NH2] (H-DYYF-NH2; configuration not given here) | 1.2 fold change |  |  |  |  |  |  |  |  |  |  |  |  | solubility at 24 h [3]: 300 µg/mL (≈ 495 µM) |
| NCCCCC(NC(=O)C(Cc1ccc(O)cc1)NC(=O)C(Cc1ccc(O)cc1)NC(=O)C(CC(=O)O)NC(=O)CN)C(N)=O (stereo not drawn) [DS-35, NH2-GDYYK-NH2] (H-GDYYK-NH2; configuration not given here) |  | 99.4% | 89.4% | 2.9% | < 1% | 95.8% | 77.7 % of control activity | 97.4 % of control activity | 93.6 % of control activity | >100 % of control activity | 4.1 % of control activity | 99.2% | > 100% |  |
| CC(C)CC(NC(=O)CN)C(=O)N(C)C(Cc1ccc(O)cc1)C(=O)NC(Cc1ccc(O)cc1)C(=O)NC(Cc1ccccc1)C(N)=O (stereo not drawn) [DS-56, NH2-GLY(N-Me)YF-NH2] |  | 70.9% | 29.4% | 2.8% | < 1% | 41.1% | 80.5 % of control activity | 91.6 % of control activity | 100.0 % of control activity | 9.2 % of control activity | 73.5 % of control activity | 10.6% | 53.9% |  |
| CC(C)CC1NC(=O)C(N)CC/C=C\CC(C(N)=O)NC(=O)C(Cc2ccc(O)cc2)NC(=O)C(Cc2ccc(O)cc2)NC1=O (stereo not drawn) [DS-73] (H-[ξhAlg]LYY[AllylGly]-NH2; staple (Z) 1-5; configuration not given here) |  | > 100% | 89.3% | 94.7% | 75.2% | 65.7% | 82.7 % of control activity | 85.9 % of control activity | 96.5 % of control activity | 80.5 % of control activity | 85.1 % of control activity | 78% | 71.6% | solubility at 24 h [3]: 315 µg/mL (≈ 495 µM) |
| CCOC(=O)[C@H](CCc1ccccc1)N[C@@H](C)C(=O)N1CCC[C@H]1C(=O)O [Enalapril] |  |  |  |  |  |  |  |  |  |  |  |  |  | Plasma stability (% remaining) Human, 30 m ([14]; 1 μM, 30 m): >100 % remaining; Plasma stability (% remaining) Human, 120 m ([14]; 1 μM, 120 m): 197.4 % remaining; Plasma stability (% remaining) Rat, 30 m [15]: 27.9 % remaining; Plasma stability (% remaining) Rat, 120 m [15]: <1 % remaining |
| CC(=O)N1CCN(c2ccc(OCC3COC(Cn4ccnc4)(c4ccc(Cl)cc4Cl)O3)cc2)CC1 (stereo not drawn) [Ketoconazole, reference compound] |  |  |  |  |  |  | 97.2 % of control activity |  | >100 % of control activity |  | >100 % of control activity |  |  |  |
| CCN(CC)CCOC(=O)c1ccc(N)cc1 [Procaine] |  |  |  |  |  |  |  |  |  |  |  |  |  | Plasma stability (% remaining) Human, 30 m column, marked (5 min) ([14]; cell marked (5 min)): 2.8 % remaining; Plasma stability (% remaining) Human, 120 m column, marked (5 min) ([14]; cell marked (5 min)): <1 % remaining; Plasma stability (% remaining) Rat, 30 m [15]: 90.3 % remaining; Plasma stability (% remaining) Rat, 120 m [15]: 57.4 % remaining |
| Ac-GDYYF-NH2 [DS-8, AcNH-GDYYF-NH2] |  | > 100% | 96% | 39.8% | 3.3% | 78.2% | 95.1 % of control activity | >100 % of control activity | >100 % of control activity | >100 % of control activity | 100 % of control activity | 83.6% | 93.9% |  |
| H-GDYYF-OH [DS-5, NH2-GDYYF-OH] |  | > 100% | 94.1% | 1.4% | < 1% | 66.4% | 83.2 % of control activity | 85.5 % of control activity | 97.3 % of control activity | 90.9 % of control activity | 80.9 % of control activity | 95.9% | 62.5% | solubility kinetic at 24 h [3]: 328 µg/mL |
